{"source": "paper PMC11579209", "about": "“Population pharmacokinetics and exposure–response relationships of maribavir in transplant recipients with cytomegalovirus infection” (Journal of Pharmacokinetics and Pharmacodynamics, 2024)", "key": {"[1]": {"experiment": "Individual predicted steady-state PK parameters (400 mg BID) derived from the final PopPK model", "type": "in vivo", "settings": "for Ctrough.ss, geometric mean (%CV) / AUC / Cmax / half-life: 400 mg BID steady state; for AUC / Cmax / half-life: human, plasma, oral, 400 mg; for AUC: read-out: AUC0–τ, geometric mean (%CV); for Cmax: read-out: Cmax.ss, geometric mean (%CV); for half-life: read-out: Half-life, geometric mean (%CV) (converted)", "protocol": "The final model was used to derive individual estimates of steady-state AUC over one dosing interval (AUC0–τ), Cmax.ss, and minimum maribavir plasma concentration (Ctrough.ss) for a 400 mg BID dosing regimen for all participants in the PopPK analysis. Individual estimates of Cmax.ss, Ctrough.ss, and AUC0–τ were obtained by prediction of the concentration–time profiles (concentrations predicted at 0, 1, 2, 3, 4, 6, 8 and 12 h) after a steady-state dose of 400 mg BID for respective individuals using their individual post hoc parameter values in the absence of strong CYP3A4 inducers or strong CYP3A4 inhibitors, and zero values for residual variability. The PK parameters AUC0–τ (linear up/log down trapezoidal rule), Cmax.ss, and Ctrough.ss were determined by non-compartmental methods.\nThe mean (percentage coefficient of variation [CV%]), geometric mean (GM) CV%, median, and percentiles for AUC0–τ, Cmax.ss, and Ctrough.ss were obtained overall and by health status (healthy individuals, all transplant recipients with CMV infection, and transplant recipients with refractory CMV infection in the phase 3 SOLSTICE study). For transplant patients with CMV infections, summary statistics were provided by covariates of interest including age (18 to < 65 years and ≥ 65 years; 18 to < 65 years, 65 to < 75 years, and 75 to < 85 years), sex, race, ethnicity, body mass index (BMI; underweight [< 18.5 kg/m^2], normal weight [18.5 to < 25 kg/m^2], overweight [25 to < 30 kg/m^2], obese [≥ 30 kg/m^2]), concurrent PPI, concurrent H2 inhibitors, transplant type, baseline plasma CMV DNA (low and intermediate/high), CMV category, hepatic impairment (none, Child-Pugh Class A, Child-Pugh Class B), presence of CMV mutations at baseline, and baseline use of antilymphocyte antibody. For the PPI and H2 inhibitor analyses, PK parameters were computed only for patients receiving the relevant concomitant medication for all their PK observations and for those who never received the relevant concomitant medication. For healthy individuals, summary statistics were provided by the following covariates of interest: age (≤ 65 years, > 65 years), sex, race, ethnicity, and BMI."}, "[2]": {"design": "method as in PMID 18316526", "settings": "concomitant ketoconazole; cited from earlier work"}, "[3]": {"experiment": "Population pharmacokinetic (PopPK) model (NONMEM), pooled maribavir plasma concentration–time data from phase 1, 2 and 3 studies", "type": "in vivo, human", "protocol": "A PopPK model was developed using non-linear mixed effects modeling (NONMEM) (v7.4.3) with pooled maribavir plasma concentration–time data from 667 participants in nine phase 1 studies (n = 182, single or repeated doses of 100, 200 or 400 mg), two phase 2 studies (NCT01611974, EudraCT 2010-024247-32, 400, 800, and 1200 mg BID), and one phase 3 study (SOLSTICE, NCT02931539, 400 mg BID; phase 2 and 3 combined: n = 485). The final PopPK analysis dataset comprised data from individuals who had received at least one dose of maribavir and had at least one quantifiable post-dose concentration. This model was used to describe the time course of maribavir plasma concentrations in healthy volunteers, participants with hepatic or renal impairment, stable renal transplant patients, and hematopoietic cell transplant (HCT) or solid organ transplant (SOT) recipients with CMV infection, including those with refractory CMV infection.\nOne- (ADVAN2 TRANS2), two- (ADVAN4 TRANS4), and three (ADVAN12 TRANS4)-compartment models with first-order absorption, an absorption lag time, and linear clearance were initially investigated. The NONMEM control stream for the final model can be found in the Supplementary Methods S1 of the Supplementary Material 1. […] Consequently, the effects of co-administration of strong CYP3A4 inhibitors and strong CYP3A4 inducers were considered for inclusion in the base model. The effect of body weight (scaled to 70 kg) on both clearance and volume terms was also considered for inclusion in the base model.\nStructural and variance model parameters were estimated for the base model, and inter-individual variability (IIV) was included on all structural parameters. Runs with untransformed data were used to test the residual error models. Plots of weighted residuals were evaluated for homoscedasticity with respect to predictions and time since dose, and the structure of the base model was expanded as necessary to best reflect the characteristic shape of the observations over time. Dose and time dependency were explored for PK model parameters. Parameter estimation was performed using Monte Carlo Importance Sampling Expectation Maximization assisted by Mode a Posteriori, with MU referencing (where THETAs that define typical values of individual parameters, and are associated with random effects, are referenced in a PHI/MU format) to improve the efficiency of computations. The impact of post-dose observations below the lower limit of quantification (BLQ) was assessed in initial models by implementing the M3 method, which maximizes the likelihood for all the data treating BLQ observations as censored. The performance of the final PopPK model was evaluated using a confidence interval prediction-corrected visual predictive check (CI-pcVPC) method. In addition, the percentage of observations outside the overall 5th and 95th percentiles of the predicted data was calculated.\nStrong CYP3A4 inhibitors and inducers, as well as weight, were included in the base model.\nContinuous covariates were obtained from observations on the first day of dosing, or at screening if this value was not available. […] Categorical covariates were tested and incorporated in the model as a series of index variables taking on values of zero or one.\nThe full model with backwards deletion approach was used for covariate modeling, with all covariate parameter relationships of interest entered into the model simultaneously. Highly correlated covariates were tested one at a time to avoid confounding in the estimation of covariate effects. A backwards deletion was carried out at the p = 0.001 significance level. The order of removal was based on the relative standard error and 95% confidence interval (CI) of the parameter estimate."}, "[4]": {"settings": "all transplant patients with CMV infection, n = 485"}, "[5]": {"settings": "refractory CMV infection (SOLSTICE only), n = 253"}, "[6]": {"settings": "transplant patients with CMV, 400 mg BID"}, "[7]": {"settings": "transplant patients with CMV, n = 5 in older group"}, "[8]": {"settings": "reference: 70-kg individual without CMV, 800 mg"}}, "note": "Read-outs that look alike come from different tables or passages of the source.", "data": [{"smiles": "CC(C)Nc1nc2cc(Cl)c(Cl)cc2n1[C@H]1O[C@@H](CO)[C@H](O)[C@@H]1O", "note": "[maribavir]", "values": [{"measurement": "Ctrough.ss, geometric mean (%CV)", "setting": "[1]; all participants, n = 667", "result": "4.33 (89.7) μg/mL"}, {"measurement": "Ctrough.ss, geometric mean (%CV)", "setting": "[1]; [4]", "result": "4.90 (89.7) µg/mL"}, {"measurement": "Ctrough.ss, geometric mean (%CV)", "setting": "[1]; healthy volunteers, n = 133", "result": "2.89 (71.7) μg/mL"}, {"measurement": "Ctrough.ss, geometric mean (%CV)", "setting": "[1]; [5]", "result": "5.13 (93.0) µg/mL"}, {"measurement": "GM AUC0-τ higher in transplant patients with CMV infection than in healthy volunteers", "setting": "[1]; 400 mg BID, steady state", "result": 27, "unit": "%"}, {"measurement": "GM Cmax.ss higher in transplant patients with CMV infection than in healthy volunteers", "setting": "[1]; 400 mg BID, steady state", "result": 5, "unit": "%"}, {"measurement": "AUC", "setting": "[1]; all participants, n = 667", "result": 121, "unit": "µg·h/mL"}, {"measurement": "Cmax", "setting": "[1]; all participants, n = 667", "result": 17200, "unit": "ng/mL"}, {"measurement": "half-life", "setting": "[1]; all participants, n = 667", "result": 654, "unit": "min"}, {"measurement": "AUC", "setting": "[1]; [4]", "result": 128, "unit": "µg·h/mL"}, {"measurement": "Cmax", "setting": "[1]; [4]", "result": 17200, "unit": "ng/mL"}, {"measurement": "AUC", "setting": "[1]; healthy volunteers, n = 133", "result": 101, "unit": "µg·h/mL"}, {"measurement": "Cmax", "setting": "[1]; healthy volunteers, n = 133", "result": 16400, "unit": "ng/mL"}, {"measurement": "half-life", "setting": "[1]; healthy volunteers, n = 133", "result": 542, "unit": "min"}, {"measurement": "Cmax", "setting": "[1]; [5]", "result": 16900, "unit": "ng/mL"}, {"measurement": "AUC", "setting": "[1]; transplant patients with refractory CMV infection (SOLSTICE only), n = 253", "result": 129, "unit": "µg·h/mL"}, {"measurement": "GM AUC0-τ higher in underweight (BMI < 18.5 kg/m^2) than normal-weight patients", "setting": "[1]; [6]", "result": 24, "unit": "%"}, {"measurement": "GM AUC0τ higher in female than male patients", "setting": "[1]; [6]", "result": 19, "unit": "%"}, {"measurement": "GM Cmax.ss higher in female than male patients", "setting": "[1]; [6]", "result": 25, "unit": "%"}, {"measurement": "GM Cmax.ss higher in underweight (BMI < 18.5 kg/m^2) than normal-weight patients", "setting": "[1]; [6]", "result": 31, "unit": "%"}, {"measurement": "Maribavir exposure between patients with no, Child-Pugh class A, or Child-Pugh class B hepatic impairment", "setting": "[1]; [6]", "result": "similar"}, {"measurement": "Maribavir exposure with or without PPI", "setting": "[1]; [6]", "result": "similar"}, {"measurement": "Maribavir exposure with or without histamine H2 blockers", "setting": "[1]; [6]", "result": "similar"}, {"measurement": "AUC0-τ higher in patients aged 75 to < 85 years vs 18 to < 65 years", "setting": "[1]; [7]", "result": 54, "unit": "%"}, {"measurement": "Cmax.ss higher in patients aged 75 to < 85 years vs 18 to < 65 years", "setting": "[1]; [7]", "result": 38, "unit": "%"}, {"measurement": "Increase in maribavir AUC0-∞", "setting": "[2]", "result": 53, "unit": "%"}, {"measurement": "Increase in maribavir Cmax", "setting": "[2]", "result": 10, "unit": "%"}, {"measurement": "CL/F higher in the presence of strong CYP3A4 inducers", "setting": "[3]; final PopPK model", "result": 2.24, "unit": "fold"}, {"measurement": "CL/F lower in the presence of strong CYP3A4 inhibitors", "setting": "[3]; final PopPK model", "result": 30, "unit": "%"}, {"measurement": "CL/F ~ CYP3A strong inducers, covariate estimate", "setting": "[3]; final PopPK model", "result": 2.24}, {"measurement": "CL/F ~ CYP3A strong inhibitors, covariate estimate", "setting": "[3]; final PopPK model", "result": 0.700}, {"measurement": "CL/F ~ transplant patients with CMV, covariate estimate", "setting": "[3]; final PopPK model", "result": 0.756}, {"measurement": "CL/F lower for transplant recipients with CMV infection than for all other individuals", "setting": "[3]; human, in vivo", "result": 24, "unit": "%"}, {"measurement": "Ka (first-order absorption), PopPK estimate", "setting": "[3]; [8]", "result": 0.336, "unit": "h^–1"}, {"measurement": "Lag-time, PopPK estimate", "setting": "[3]; [8]", "result": 0.271, "unit": "h"}, {"measurement": "Q/F (inter-compartment clearance), PopPK estimate", "setting": "[3]; [8]", "result": 0.908, "unit": "L/h"}, {"measurement": "Vc/F (apparent volume of central compartment), PopPK estimate", "setting": "[3]; [8]", "result": 18.6, "unit": "L"}, {"measurement": "Vp/F (apparent volume of peripheral compartment), PopPK estimate", "setting": "[3]; [8]", "result": 8.66, "unit": "L"}, {"measurement": "CL/F (apparent total clearance), PopPK estimate", "setting": "[3]; reference: 70-kg individual without CMV, 800 mg maribavir, no CYP3A strong inhibitors or inducers", "result": 3.77, "unit": "L/h"}]}]}
